Tests used:
[1] = Thermal analysis (thermal stability of the crystals); assay type: physicochemical
From the text: Using the thermal analysis apparatus (Rigaku Denki; TAS-200), the thermal stability of the crystals were examined.

[2] = Hygroscopicity of the crystals; assay type: physicochemical
[3] = M. Nomura et al, Bioorg. Med. Chem. Lett., 9 (1999) 533-538; cited from earlier work
[4] = thermal analysis apparatus Rigaku Denki TAS-200

Question: For `COc1ccc(CC2SC(=O)NC2=O)cc1C(=O)NCc1ccc(C(F)(F)F)cc1` (stereo not drawn) [conventional crystals, 5-[(2,4-dioxothiazolidin-5-yl)methyl]-2-methoxy-N-[[4-(trifluoromethyl)phenyl]methyl]benzamide, reference compound], which endothermic peak [1, 4] is on record?
Answer: Its endothermic peak is 186.3 °C.

Question: Which results are given for `COc1ccc(CC2SC(=O)NC2=O)cc1C(=O)NCc1ccc(C(F)(F)F)cc1` (stereo not drawn) [novel crystal, 5-[(2,4-dioxothiazolidin-5-yl)methyl]-2-methoxy-N-[[4-(trifluoromethyl)phenyl]methyl]benzamide]?
Answer: thermal stability compared with the conventional crystal ([1]; conclusion from thermal analysis): more thermally stable; endothermic peak [1, 4]: 196.2 °C; endothermic phenomena observed from (onset) [1, 4]: 194.8 °C; hygroscopicity [2]: no hygroscopicity

Question: Which glucose-lowering activity [3] does the source give for `COc1ccc(CC2SC(=O)NC2=O)cc1C(=O)NCc1ccc(C(F)(F)F)cc1` (stereo not drawn) [KRP-297, 5-[(2,4-dioxothiazolidin-5-yl)methyl]-2-methoxy-N-[[4-(trifluoromethyl)phenyl]methyl]benzamide] here?
Answer: The glucose-lowering activity was “very excellent glucose-lowering activity”.

Source: patent publication US6770133B2, “Stable crystal of thiazolidinedione derivative and process for producing the same” (Kyorin Pharmaceutical Co., Ltd., priority 2000, dated 2004)
